Reference: patent publication US20100197588A1, “USE OF A PEPTIDE AS A THERAPEUTIC AGENT” (priority 2007, published 2010)
Where no end group is shown, it is not given here.

Key:
HIV-1IIIB = experiment: HIV-1 antiviral assay in CEM-SS cells (MTS readout)
HUVEC = experiment: Endothelial tube formation assay; details: 10 micrograms per ml, 20 hours, combination peptide 1:peptide 2 0.95 mole:1.05 mole
Protocol: The endothelial tube formation assay is based on the ability of endothelial cells to form three-dimensional capillary-like tubular structures when cultured on a gel of basement membrane extract. […] Pre-labeled HUVEC with Calcein AM were seeded in a 96-well culture plate coated with extracellular metrix (Chemicon international Cat. ECM625) and treated with test peptides—10 micrograms per ml—in full growth medium. Positive control was vehicle only. The endothelial cells were allowed to form tubes for 20 hours and were then examined under an inverted fluorescent microscope. Duplicate wells for each treatment were photographed and quantitatively analyzed for an average tubule length using image analysis software ImageProPlus. Raw data were expressed as average tubule lengths in pixels ±standard deviation. Statistic p values were computed using the Student's t-test.

Interferon-γ (IFN-γ) = experiment: Th1/Th2 cytokine profiling assay, IFN-γ; details: 10 micrograms per ml; Ovalbumin-restimulated Balb/c spleen cells, 72 hours
Excerpt: (§1) The Balb/c mice (originated in 1923, it is a popular strain and is used in many different research disciplines. Also classified as an inbred from the production of 20 or more successive brother-sister matings, the Balb/c mouse is albino and small in size) were immunized on Days 1, 15, and 29 with Ovalbumin (Ovalbumin is the main protein found in egg white, commonly used to stimulate an immunological reaction in test animals) in PBS (5 micrograms/injection). On day 50, spleens of the mice were harvested (3 weeks after last boost with Ovalbumin). […] Thereafter, additional Ovalbumin was added to the cells at 10 micrograms/ml for in vitro restimulation of the cells. 72 hours later, cell supernatants were harvested and assayed using the Becton Dickinson Mouse Th1/Th2 Cytokine CBA Kit. This kit can be used to measure Interleukin-2 (IL-2), Interleukin-4 (IL-4), Interleukin-5 (IL-5), Interferon-γ (IFN-γ), and Tumor Necrosis Factor-α (TNF-α) protein levels in a single sample. The kit performance has been optimized for analysis of physiologically relevant concentrations (μg/ml levels) of specific cytokine proteins in tissue culture supernatants and serum samples.

[1] = tested on: hepatitis B virus (HBV) ayw strain; experiment: HBV experimental assay system, secreted HBV DNA by TaqMan PCR in HepG2-2.2.15 cells; type: cell-based; details: 10 micrograms per ml, six days
Excerpt: HepG2-2.2.15 is a stable cell line containing the hepatitis B virus (HBV) ayw strain genome (ATCC Cat. No. CRL-11997). Antiviral compounds blocking any late step of viral replication such as transcription, translation, pregenome encapsidation, reverse transcription, particle assembly and release can be identified and characterized using this cell line. In this assay, an active compound will reduce the production of secreted HBV from cells, measured by utilizing real time quantitative PCR (TaqMan) assay to directly and accurately measure HBV DNA copies.
HepG2-2.2.15 cells were plated in 96-well microtiter plates. After 16-24 hours the confluent monolayer of HepG2-2.2.15 cells was washed and the medium was replaced with complete medium containing test peptides—10 micrograms per ml—in duplicate. […] Six days following the initial administration of the peptides, the cell culture supernatants was collected, treated with pronase and DNAse and then used in a real-time quantitative TaqMan PCR assay. The PCR-amplified HBV DNA was detected in real-time by monitoring increases in fluorescence signals that result from the exonucleolytic degradation of a quenched fluorescence probe molecule that hybridizes to the amplified HBV DNA. […] Antiviral activity was calculated from the reduction in HBV DNA levels (% virus control). […]

A549 cells = experiment: Apoptosis prevention assay (C2 ceramide, Annexin-5); details: 10 micrograms per ml, 30 min pretreatment, then C2 ceramide, combination 0.95 mole peptide 1 and 1.05 mole peptide 2
Protocol: Human A549 cells (carcinomic human alveolar basal epithelial cells) were utilized in the experiments employing the Annexin-5 apoptosis assay. […] A549 cells were pretreated for 30 min with test peptides—10 micrograms per ml—followed by the exposure to C2 ceramide.

Interleukin-4 (IL-4) = experiment: Th1/Th2 cytokine profiling assay, IL-4; details: 10 micrograms per ml; Ovalbumin-restimulated Balb/c spleen cells, 72 hours
Excerpt: (§2) The Balb/c mice (originated in 1923, it is a popular strain and is used in many different research disciplines. Also classified as an inbred from the production of 20 or more successive brother-sister matings, the Balb/c mouse is albino and small in size) were immunized on Days 1, 15, and 29 with Ovalbumin (Ovalbumin is the main protein found in egg white, commonly used to stimulate an immunological reaction in test animals) in PBS (5 micrograms/injection). On day 50, spleens of the mice were harvested (3 weeks after last boost with Ovalbumin). […] Thereafter, additional Ovalbumin was added to the cells at 10 micrograms/ml for in vitro restimulation of the cells. 72 hours later, cell supernatants were harvested and assayed using the Becton Dickinson Mouse Th1/Th2 Cytokine CBA Kit. This kit can be used to measure Interleukin-2 (IL-2), Interleukin-4 (IL-4), Interleukin-5 (IL-5), Interferon-γ (IFN-γ), and Tumor Necrosis Factor-α (TNF-α) protein levels in a single sample.

[2] = tested on: Tumor Necrosis Factor-α (TNF-α); experiment: Th1/Th2 cytokine profiling assay, TNF-α; details: 10 micrograms per ml; Ovalbumin-restimulated Balb/c spleen cells, 72 hours
Excerpt: as §1

Interleukin-2 (IL-2) = experiment: Th1/Th2 cytokine profiling assay, IL-2; details: 10 micrograms per ml; Ovalbumin-restimulated Balb/c spleen cells, 72 hours
Excerpt: as §2

[3] = tested on: Human Peripheral Blood Mononuclear Cells (PBMC), B cell proliferation; experiment: B cell proliferation assay (SAC plus Interleukin-2 stimulated PBMC, 3H-thymidine); details: 10 micrograms per ml, 3 days
Protocol: Human Peripheral Blood Mononuclear Cells (PBMC) were obtained from normal human donors. The B cell proliferation was induced by stimulation of the cells with the B cell mitogen Staphylococcus aureus Cowans I (SAC) plus Interleukin-2, either in the absence (positive proliferation control), or in the presence of test peptides—10 micrograms per ml—to examine their effects on the B cell response. 10^5/well PBMC were plated in 96-well microtiter plates and assayed in duplicate with the peptides. […] At the end of incubation time, the plates were harvested and the cells counted by liquid scintillation for the incorporation of ^3H-thymidine as a measure of B cell proliferation.

[4] = tested on: Primary Human endothelial cells (HUVEC); experiment: Endothelial cell migration assay; details: 10 micrograms per ml, 22 hours
Protocol: Primary Human endothelial cells (HUVEC) were seeded in insert chambers with 3 micrometer pore size of multi-transwell plate for 6 hours at 37° C. in Endothelial Cell Basal Medium (EBM) supplemented with 0.1% bovine serum albumin. Thereafter, designated concentration of testing peptides—10 micrograms per ml—was added in duplicate wells. The endothelia were allowed to migrate for 22 hours at 37° C., then, migrated cells were fixed and stained with Hoechst 33342 dye. Images of 3 fields per insert were taken and the number of migrated cells per field were quantified using the ImageProPlus software. Data were analyzed for the average number of the migrated cells and standard deviation of six data points for each treatment condition. […] Statistic p values were computed using the Student's t-test.

Interleukin-5 (IL-5) = experiment: Th1/Th2 cytokine profiling assay, IL-5; details: 10 micrograms per ml; Ovalbumin-restimulated Balb/c spleen cells, 72 hours
Excerpt: as §2

HCMV strain AD169 = experiment: HCMV plaque formation assay in MRC-5 cells

| Compound | antiviral activity of positive control compounds (HIV-1) (HIV-1IIIB) | induction of the tube formation of human endothelial cells (HUVEC) [%] | IFNγ spleen cells; TH1 response (% of control) (Interferon-γ (IFN-γ)) | inhibition of HBV replication as compared to the virus control infection [1] | induction of the ceramide-induced apoptosis on human lung cells (A549 cells) | IL-4 spleen cells; TH2 response (% of control) (Interleukin-4 (IL-4)) | TNF-a spleen cells; TH1 response (% of control) [2] | IL-2 spleen cells (% of control) (Interleukin-2 (IL-2)) | induction of the proliferation of specifically stimulated human B-cells [3] | inhibition of the migration of endothelial cells ([4]; combination peptide 1:peptide 2 0.95 mole:1.05 mole) [%] | IL-5 spleen cells; TH2 response (% of control) (Interleukin-5 (IL-5)) | induction of the migration of endothelial cells [4] [%] | antiviral activity of positive control compound (HCMV) (HCMV strain AD169) |
| --- | --- | --- | --- | --- | --- | --- | --- | --- | --- | --- | --- | --- | --- |
| Cc1cn([C@H]2C[C@H](N=[N+]=[N-])[C@@H](CO)O2)c(=O)[nH]c1=O [AZT] | expected levels of antiviral activity | – | – | – | – | – | – | – | – | – | – | – | – |
| CC(C)(C)NC(=O)[C@@H]1CN(Cc2cccnc2)CCN1C[C@@H](O)C[C@@H](Cc1ccccc1)C(=O)N[C@H]1c2ccccc2C[C@H]1O [indinavir] | expected levels of antiviral activity | – | – | – | – | – | – | – | – | – | – | – | – |
| His-Ser-Asp-Gly-Ile-Phe-Thr-Asp-Ser-Tyr-Ser-Arg-Tyr-Arg-Lys-Gln-Met-Ala-Val-Lys-Lys-Tyr-Leu-Ala-Ala-Val-Leu-Gly-Lys-Arg-Tyr-Lys-Gln-Arg-Val-Lys-Asn-Lys-NH2 (HSDGIFTDSYSRYRKQMAVKKYLAAVLGKRYKQRVKNK-NH2) [peptide 1] | – | 36 | 60.8 % of control | 48.0% | did not induce | 120.1 % of control | 94.0 % of control | 0.0 % of control | 23.3% | 6 | 63.0 % of control | – | – |
| Ac-Met-Trp-Asp-Phe-Asp-Asp-Leu-Asn-Phe-Thr-Gly-Met-Pro-Pro-Ala-Asp-Glu-Asp-Tyr-Ser-Pro-NH2 (Ac-MWDFDDLNFTGMPPADEDYSP-NH2) [peptide 2] | – | 32 | 59.2 % of control | no effect | 19.65% | 136.3 % of control | 90.3 % of control | 63.0 % of control | does not show any induction | – | 59.3 % of control | 9 | – |
| Nc1nc(O)c2ncn(COC(CO)CO)c2n1 [Ganciclovir] | – | – | – | – | – | – | – | – | – | – | – | – | expected levels of antiviral activity |
